The results in this text go back to patent US9518026B2, “5-aminopyrazole-4-carboxamide inhibitors of CDPK1 from T. gondii and C. parvum” (UNIVERSITY OF WASHINGTON THROUGH ITS CENTER FOR …, priority 2013, dated 2016).

A short description of series [1]: Cytotoxicity against CRL8155 cell line. It is filed as cell-based. To be noted: human, CRL8155 cells (lymphoblast, spleen), read-out: Cytotoxicity (CRL8155) EC50.
In series [2] the target is CpCDPK1 (Cryptosporidium parvum (strain Iowa II), UniProt A3FQ16). The series is described as follows: biochemical. To be noted: Table 1; KinaseGlo, Syntide 2 peptide substrate; read-out: CpCDPK1 IC50. In general terms: In Kinase-Glo more light means more ATP remaining.
Series [3] deals with TgCDPK1 (Toxoplasma gondii, UniProt Q9BJF5). The series is described as follows: biochemical. Particulars: read-out: TgCDPK1 IC50.
The mark [4] stands for this setting: Table 1, KinaseGlo, Syntide 2 peptide substrate.

Read-outs that look alike come from different tables or passages of the source. A value given as a limit tells only on which side of the number the result lay.

Sequence of TgCDPK1 (Q9BJF5 1-507): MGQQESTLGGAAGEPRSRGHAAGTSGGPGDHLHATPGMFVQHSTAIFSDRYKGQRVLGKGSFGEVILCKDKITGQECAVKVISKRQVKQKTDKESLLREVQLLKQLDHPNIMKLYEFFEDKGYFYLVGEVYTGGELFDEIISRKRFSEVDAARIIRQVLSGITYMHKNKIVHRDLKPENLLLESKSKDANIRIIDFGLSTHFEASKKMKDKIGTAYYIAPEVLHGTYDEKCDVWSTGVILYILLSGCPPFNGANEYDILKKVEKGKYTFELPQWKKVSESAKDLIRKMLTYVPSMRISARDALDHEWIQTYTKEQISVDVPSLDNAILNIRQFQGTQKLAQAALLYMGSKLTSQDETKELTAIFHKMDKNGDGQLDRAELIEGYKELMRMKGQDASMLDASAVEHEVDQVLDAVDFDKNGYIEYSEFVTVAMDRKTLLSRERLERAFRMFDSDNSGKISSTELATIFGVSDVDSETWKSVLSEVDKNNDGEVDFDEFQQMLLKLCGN
Sequence of CpCDPK1 (A3FQ16 1-538): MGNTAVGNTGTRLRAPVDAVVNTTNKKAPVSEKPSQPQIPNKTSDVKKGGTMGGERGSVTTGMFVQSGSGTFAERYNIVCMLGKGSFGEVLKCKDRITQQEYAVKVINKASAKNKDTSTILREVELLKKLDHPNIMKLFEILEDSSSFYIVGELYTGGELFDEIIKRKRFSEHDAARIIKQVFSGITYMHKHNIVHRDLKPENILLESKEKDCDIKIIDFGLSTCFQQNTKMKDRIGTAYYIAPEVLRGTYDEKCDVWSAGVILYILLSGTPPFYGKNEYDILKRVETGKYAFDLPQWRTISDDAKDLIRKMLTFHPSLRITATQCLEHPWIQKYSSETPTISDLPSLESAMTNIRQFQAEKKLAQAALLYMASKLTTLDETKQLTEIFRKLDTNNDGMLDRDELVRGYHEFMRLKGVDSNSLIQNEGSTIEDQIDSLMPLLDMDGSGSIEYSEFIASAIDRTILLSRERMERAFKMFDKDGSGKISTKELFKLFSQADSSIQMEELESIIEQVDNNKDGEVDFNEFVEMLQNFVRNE

The term EC50 denotes the concentration giving half of the maximal effect. As to `CCOc1ccc2cc(-c3nn(CC(C)(C)CO)c(N)c3C(N)=O)ccc2n1` [Compound 1622, 5-amino-3-(2-ethoxyquinolin-6-yl)-1-(3-hydroxy-2,2-dimethylpropyl)-1H-pyrazole-4-carboxamide], in series [1] (Table 3), the EC50 was > 40000 nM.

As a reminder, the IC50 is the midpoint of a concentration-inhibition curve. Regarding `CCOc1ccc2cc(-c3nn(CCOC)c(N)c3C(N)=O)cnc2c1` [Compound 1594, 5-amino-3-(7-ethoxyquinolin-3-yl)-1-(2-methoxyethyl)-1H-pyrazole-4-carboxamide], the values for the IC50 in series [2] and in series [3] (setting [4]) were 172 nM and 321 nM, respectively.

As to `CCOc1ccc2cc(-c3nn(C4(C)CCCCC4)c(N)c3C(N)=O)cnc2c1` [Compound 1640, 5-amino-3-(7-ethoxyquinolin-3-yl)-1-(1-methylcyclohexyl)-1H-pyrazole-4-carboxamide], the IC50 was found to be 6 nM in series [2] and 9 nM in series [3] (setting [4]).

As to `CC(C)(C)n1nc(-c2cnc3cc(OC4CCC4)ccc3c2)c(C(N)=O)c1N` [Compound 1630, 5-amino-1-(tert-butyl)-3-(7-cyclobutoxyquinolin-3-yl)-1H-pyrazole-4-carboxamide], the IC50 came to 4 nM in series [2] and 3 nM in series [3] (setting [4]).

For the compound `NC(=O)c1c(-c2ccc3ccccc3c2)nn(CCO)c1N` [Compound 22, 5-amino-1-(2-hydroxyethyl)-3-(naphthalen-2-yl)-1H-pyrazole-4-carboxamide], the IC50 in series [2] is 21 nM; in series [3], 15 nM.

Consider `COc1ccc2cc(-c3nn(CC4CCN(C)CC4)c(N)c3C(N)=O)ccc2c1` [Compound 10, 5-amino-3-(6-methoxynaphthalen-2-yl)-1-((1-methylpiperidin-4-yl)methyl)-1H-pyrazole-4-carboxamide], for which the IC50 in series [2] came to 14 nM; in series [3] (setting [4]), 35 nM.

Take `Cc1nc2cc(-c3nn(C(C)(C)C)c(N)c3C(N)=O)ccc2n1C` [Compound 32, 5-amino-1-(tert-butyl)-3-(1,2-dimethyl-1H-benzo[d]imidazol-5-yl)-1H-pyrazole-4-carboxamide]: the IC50 in series [2] and in series [3] (setting [4]) was > 3000 nM in each case.

Take `COc1ccc2cc(-c3n[nH]c(N)c3C(N)=O)ccc2c1` [Compound 11, 5-amino-3-(6-methoxynaphthalen-2-yl)-1H-pyrazole-4-carboxamide]: the figures for the IC50 in series [2] and in series [3] were 48 nM and 81 nM, respectively.

Consider `CN1CCC(Cn2nc(-c3ccc4ccccc4c3)c(C(N)=O)c2N)CC1` [Compound 21, 5-amino-1-((1-methylpiperidin-4-yl)methyl)-3-(naphthalen-2-yl)-1H-pyrazole-4-carboxamide], for which the IC50 came out at 17 nM in series [2] and 39 nM in series [3].

As to `NC(=O)c1c(-c2ccc3ccccc3c2)nn(C2CCCCC2)c1N` [Compound 17, 5-amino-1-cyclohexyl-3-(naphthalen-2-yl)-1H-pyrazole-4-carboxamide], the IC50 was 16 nM in series [2] and 11 nM in series [3].

Turning to `Cn1ncc2cc(-c3nn(C(C)(C)C)c(N)c3C(N)=O)ccc21` [Compound 30, 5-amino-1-(tert-butyl)-3-(1-methyl-1H-indazol-5-yl)-1H-pyrazole-4-carboxamide], the IC50 in series [2] is 150 nM; in series [3] it was 32 nM.

On to `CCOc1ccc2cc(-c3nn4c(c3C(N)=O)NC(=O)C4)cnc2c1` [Compound 1609, 6-(7-ethoxyquinolin-3-yl)-2-oxo-2,3-dihydro-1H-imidazo[1,2-b]pyrazole-7-carboxamide], for which the IC50 in series [2] was 577 nM; in series [3] (setting [4]), 1430 nM.

In the case of `CCOc1ccc2cc(-c3nn(CC4CCN(C)CC4)c(N)c3C(N)=O)ccc2c1` [Compound 8, 5-amino-3-(6-ethoxynaphthalen-2-yl)-1-((1-methylpiperidin-4-yl)methyl)-1H-pyrazole-4-carboxamide], the IC50 in series [2] is 9 nM; in series [3] it was 11 nM.

Turning to `CCOc1ccc2cc(-c3nn(C(C)C(C)O)c(N)c3C(N)=O)cnc2c1` (stereo not drawn) [Compound 1611, 5-amino-3-(7-ethoxyquinolin-3-yl)-1-(3-hydroxybutan-2-yl)-1H-pyrazole-4-carboxamide], the IC50 in series [2] was 6 nM; in series [3] (setting [4]), 19 nM.

In the case of `CCOc1ccc2cc(-c3nn(C(C)C(C)(C)CO)c(N)c3C(N)=O)cnc2c1` (stereo not drawn) [Compound 1637, 5-amino-3-(7-ethoxyquinolin-3-yl)-1-(4-hydroxy-3,3-dimethylbutan-2-yl)-1H-pyrazole-4-carboxamide], the IC50 worked out at 4 nM in series [2] and 12 nM in series [3] (setting [4]).

As for `CCOc1ccc2cc(-c3nn(C4CCCCCC4)c(N)c3C(N)=O)ccc2n1` [Compound 1632, 5-amino-1-cycloheptyl-3-(2-ethoxyquinolin-6-yl)-1H-pyrazole-4-carboxamide], the concentration for half-maximal inhibition (IC50) in series [2] worked out at 6 nM; in series [3] (setting [4]), 7 nM.

For the compound `CC(C)(C)Cn1nc(-c2ccc3ccccc3c2)c(C(N)=O)c1N` [Compound 19, 5-amino-3-(naphthalen-2-yl)-1-neopentyl-1H-pyrazole-4-carboxamide], in series [1] (Table 2), the EC50 was > 40000 nM.

As to `CCOc1ccc2cc(-c3n[nH]c(N)c3C(N)=O)cnc2c1` [Compound 1593, 5-amino-3-(7-ethoxyquinolin-3-yl)-1H-pyrazole-4-carboxamide], the IC50 in series [2] came out at 67 nM; in series [3] (setting [4]) it was 164 nM.

Regarding `CCOc1ccc2cc(-c3nn(CCOC)c(N)c3C(=O)NCCOC)cnc2c1` [Compound 1595, 5-amino-3-(7-ethoxyquinolin-3-yl)-N,1-bis(2-methoxyethyl)-1H-pyrazole-4-carboxamide], the half-inhibitory concentration (IC50) amounted to 398 nM in series [2] and 723 nM in series [3] (setting [4]).

For the compound `CCOc1ccc2cc(-c3nn(C(C(C)C)C(C)C)c(N)c3C(N)=O)cnc2c1` [Compound 1607, 5-amino-1-(2,4-dimethylpentan-3-yl)-3-(7-ethoxyquinolin-3-yl)-1H-pyrazole-4-carboxamide], the IC50 in series [2] was 20 nM; in series [3] (setting [4]) it was 99 nM.

Consider `CCOc1ccc2cc(-c3nn(C4CCOC4)c(N)c3C(N)=O)cnc2c1` (stereo not drawn) [Compound 1612, 5-amino-3-(7-ethoxyquinolin-3-yl)-1-(tetrahydrofuran-3-yl)-1H-pyrazole-4-carboxamide], for which the results for the IC50 in series [2] and in series [3] (setting [4]) were 3 nM and 10 nM, respectively.

Consider `CCOc1ccc2cc(-c3nn(C(C)C)c(N)c3C(N)=O)ccc2n1` [Compound 1661, 5-amino-3-(2-ethoxyquinolin-6-yl)-1-isopropyl-1H-pyrazole-4-carboxamide], for which the IC50 stood at 2 nM in series [2] and 5 nM in series [3] (setting [4]).

`CN1CCC(n2nc(-c3ccc4ccccc4c3)c(C(N)=O)c2N)CC1` [Compound 20, 5-amino-1-(1-methylpiperidin-4-yl)-3-(naphthalen-2-yl)-1H-pyrazole-4-carboxamide]: the IC50 is 13 nM in series [2] and 26 nM in series [3].

With `CCOc1ccc2cc(-c3nn(C(C)C(C)(C)O)c(N)c3C(N)=O)cnc2c1` (stereo not drawn) [Compound 1626, 5-amino-3-(7-ethoxyquinolin-3-yl)-1-(3-hydroxy-3-methylbutan-2-yl)-1H-pyrazole-4-carboxamide], the IC50 in series [2] amounted to 13 nM; in series [3] (setting [4]), 30 nM.

For the compound `CCn1nc(-c2ccc3ccccc3c2)c(C(N)=O)c1N` [Compound 12, 5-amino-1-ethyl-3-(naphthalen-2-yl)-1H-pyrazole-4-carboxamide], the results for the IC50 in series [2] and in series [3] were 11 nM and 8 nM, respectively.
